For three compounds, EC50 and IC50 results are on record in patent US20140349943A1, “TOPICAL FORMULATIONS OF CHEMERIN C15 PEPTIDES FOR THE TREATMENT OF DERMATOLOGICAL CONDITIONS” (priority 2011, published 2014).

In the assay the target is T1, mChemR23 (Mus musculus, UniProt P97468).
T1 construct: host or cells: CHO (stated generally for the PathHunter assay)
T1 sequence (P97468 1-371): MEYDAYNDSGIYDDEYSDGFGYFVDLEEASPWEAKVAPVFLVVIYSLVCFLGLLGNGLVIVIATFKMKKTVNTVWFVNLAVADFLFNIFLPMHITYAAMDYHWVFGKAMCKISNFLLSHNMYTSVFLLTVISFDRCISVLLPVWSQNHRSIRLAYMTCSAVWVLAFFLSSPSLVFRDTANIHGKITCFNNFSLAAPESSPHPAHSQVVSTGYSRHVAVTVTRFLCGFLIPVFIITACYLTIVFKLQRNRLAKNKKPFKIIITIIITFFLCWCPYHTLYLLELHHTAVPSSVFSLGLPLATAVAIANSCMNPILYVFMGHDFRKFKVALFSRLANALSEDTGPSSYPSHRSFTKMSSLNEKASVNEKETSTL
As to the kind of experiment: PathHunter β-Arrestin assay, mouse ChemR23. The assay is classed as cell-based. As to the method:
The DiscoveRx PathHunter™ eXpress GPCR activity assay was employed to test agonist and antagonist activities of the chemerin peptides against the GPCRs ChemR23 and GPR1. Two assay formats were tested, the PathHunter β-Arrestin assay and the Hit Hunter cAMP Hunter assay.
The PathHunter β-Arrestin assay monitors the activation of a GPCR in a homogenous, non-imaging assay format using a technology developed by DiscoveRx called complementation, which utilizes an enzyme fragment complementation (EFC) assay with β-galactosidase (β-Gal) as the functional reporter. The enzyme is split into two complementary portions expressed as fusion proteins in the cell. The Enzyme Acceptor (EA) is fused to β-Arrestin and the ProLink donor peptide is fused to the GPCR of interest. Upon GPCR stimulation, β-Arrestin is recruited to the receptor for desensitization, bringing the two fragments of β-Gal together and allowing complementation to occur.
The assay involves CHO cell lines that express 1) a GPCR of interest (e.g. ChemR23 or GPR1) that has a fragment of the βgal enzyme fused to the C-terminus of the receptor and 2) a β-arrestin fused to the main β-gal enzyme. When the agonist binds to the receptor, β-arrestin is recruited to the receptor and the β-gal enzyme is complemented by the fragment from the GPCR thus forming a functional β-gal enzyme. A substrate is then added and luminescence is generated to detect β-arrestin recruitment.
The protocol used was a standard protocol employed by DiscoveRx PathHunter™ profiling service. […] Once it was established that the cells were healthy and growing normally, cells were passaged from flasks using cell dissociation reagent and seeded into white walled clear bottom 384-well microplates for compound profiling. For profiling, cells were seeded at a density of 5000 cells per well in a total volume of 20 μL and were allowed to adhere and recover overnight prior to compound addition.
For the agonist assay, intermediate dilution of compound stocks were generated such that 5 μL of 5× compound could be added to each well with a final DMSO concentration of 1% of total volume. For profiling compound in agonist mode, the cells were incubated in the presence of compound at 37° C. for 90 minutes.
For the antagonist assay, agonist dose curves were performed the morning of profiling to determine the EC80 value for the following antagonist testing with compounds. 5 μL of 5× agonist (i.e. chemerin) was added to each well with an equal concentration of vehicle present. EC80 agonist concentration was determined directly from agonist dose curve. For antagonist determination, cells were preincubated with antagonist followed by agonist challenge at the EC80 concentration: 4. 5 μL of 5× compound added to cells and incubated at 37° C. for 30 minutes. 5. […]
Microplates were read following signal generation with a PerkinElmer Envision™ instrument for chemiluminescent signal detection
Dose curves in the presence and absence of compound were plotted using GraphPad Prism or Activity Base. For agonist mode assays, percentage activity was calculated using the following formula: % Activity=100%×(Mean RLU of test sample−mean RLU of vehicle control)/(mean MAX RLU control ligand−mean RLU of vehicle control)). For antagonist mode assays, percentage inhibition was calculated using the following formula: % Inhibition=100%×(1−(Mean RLU of test sample−mean RLU of vehicle control)/(mean RLU of EC80 control−mean RLU of vehicle control)).

Peptide text beside a SMILES is read from it.

As usually defined, the EC50 is the midpoint of the concentration-response curve. Read a low EC50 as an effect from little substance. In turn, `C[C@H](N)C(=O)NCC(=O)N[C@@H](CCC(=O)O)C(=O)N[C@@H](CC(=O)O)C(=O)N1CCC[C@H]1C(=O)N[C@@H](Cc1c[nH]cn1)C(=O)N[C@@H](CO)C(=O)N[C@@H](Cc1ccccc1)C(=O)N[C@@H](Cc1ccc(O)cc1)C(=O)N[C@@H](Cc1ccccc1)C(=O)N1CCC[C@H]1C(=O)NCC(=O)N[C@@H](CCC(N)=O)C(=O)N[C@@H](Cc1ccccc1)C(=O)N[C@@H](C)C(=O)O` [C15 (human)] (H-AGEDPHSFYFPGQFA-OH; N-terminus and C-terminus assumed) registered an EC50 of more than 10 µM.
The term IC50 denotes the concentration at which inhibition is half-maximal. A higher IC50 goes with weaker potency in that assay. Turning to `C[C@H](N)C(=O)NCC(=O)N[C@@H](CCC(=O)O)C(=O)N[C@@H](CC(=O)O)C(=O)N1CCC[C@H]1C(=O)N[C@@H](Cc1c[nH]cn1)C(=O)N[C@@H](CO)C(=O)N[C@@H](Cc1ccccc1)C(=O)N[C@@H](Cc1ccc(O)cc1)C(=O)N[C@@H](Cc1ccccc1)C(=O)N1CCC[C@H]1C(=O)NCC(=O)N[C@@H](CCC(N)=O)C(=O)N[C@@H](Cc1ccccc1)C(=O)N[C@@H](C)C(=O)N[C@@H](Cc1ccccc1)C(=O)N[C@@H](CO)C(=O)O` [C17 (human)] (H-AGEDPHSFYFPGQFAFS-OH; N-terminus and C-terminus assumed), the IC50 was more than 10 µM.
Compound `CC(C)C[C@H](NC(=O)[C@H](Cc1ccccc1)NC(=O)[C@H](Cc1ccc(O)cc1)NC(=O)CNC(=O)[C@H](Cc1c[nH]cn1)NC(=O)[C@@H]1CCCN1C(=O)[C@H](CC(=O)O)NC(=O)[C@H](CCC(=O)O)NC(=O)CNC(=O)[C@H](C)N)C(=O)N1CCC[C@H]1C(=O)NCC(=O)N[C@@H](CCC(N)=O)C(=O)N[C@@H](Cc1ccccc1)C(=O)N[C@@H](C)C(=O)O` [mC15] (H-AGEDPHGYFLPGQFA-OH; N-terminus and C-terminus assumed) gave an IC50 of more than 10 µM.
